The source made the active and inactive calls. The rule behind the calls is not given here.
Experiments:
HT-22 [1] = test: Cytoprotective activity against tunicamycin-induced cell death in mouse HT22 cells at 20 uM after 24 hrs by MTT assay; format: functional, cell-based
HT-22 [2] = test: Effect on CHOP expression in mouse HT22 cells at 20 uM after 12 hrs by Western blot analysis; format: cell-based; conditions: ht-22, 12 h
HT-22 [3] = test: Cytoprotective activity against tunicamycin-induced cell death in mouse HT22 cells after 24 hrs by MTT assay; format: functional, cell-based; conditions: for EC50: HT-22, 24 h
HT-22 [4] = test: Cytoprotective activity against tunicamycin-induced cell death in mouse HT22 cells assessed as preservation of spindle shape morphology after 24 hrs by MTT assay; format: functional, cell-based
HT-22 [5] = test: Suppression of TM-induced increase in CHOP expression in mouse HT22 cells at 20 uM after 12 hrs by Western blot analysis; format: functional, cell-based
HT-22 [6] = test: Cytotoxicity against mouse HT22 cells at 20 uM after 24 hrs by MTT assay; format: cell-based; conditions: ht-22, 24 h

SMILES	Activity (HT-22 [1])	Activity (HT-22 [2])	Activity (HT-22 [3])	EC50 (HT-22 [3])	Activity (HT-22 [4])	Activity (HT-22 [5])	Activity (HT-22 [6])
O=C1Nc2ccc(Br)cc2/C1=C1/Nc2ccccc2/C1=N\O [INDIRUBIN 2]	Active	Non-Toxic	Dose-dependent effect	85.8 µM	Active	Active	Non-Toxic
CC(C)c1ccc2c(c1)/C(=C1/Nc3ccccc3/C1=N\O)C(=O)N2	Active	–	Dose-dependent effect	–	–	–	–
Cc1ccc2c(c1)C(=O)/C(=C1/C(=O)Nc3ccccc31)N2	–	–	Dose-dependent effect	–	–	–	–
COc1cccc2c1NC(=O)/C2=C1\Nc2ccccc2C1=O	–	–	Dose-dependent effect	–	–	–	–
COc1ccc2c(c1)/C(=C1/Nc3ccccc3/C1=N\O)C(=O)N2	Active	–	Dose-dependent effect	–	–	–	–
O=C1Nc2c(O)cccc2/C1=C1/Nc2ccccc2C1=O	–	–	Dose-dependent effect	–	–	–	–
COc1cc2c(cc1OC)/C(=C1/Nc3ccccc3/C1=N\O)C(=O)N2	Active	–	Dose-dependent effect	–	–	–	–
O=C1Nc2ccc(Br)cc2/C1=C1/Nc2ccccc2C1=O	Active	Non-Toxic	Dose-dependent effect	36 µM	Active	Active	Non-Toxic
O=C1Nc2ccccc2/C1=C1/Nc2ccccc2/C1=N\OCC1CO1 (stereo not given)	–	–	Dose-dependent effect	–	–	–	–
O=C1Nc2cc(Br)ccc2/C1=C1/Nc2ccccc2/C1=N\O [6BIO]	inactive	–	–	–	–	–	Toxic
O=C1Nc2ccccc2/C1=C1/Nc2cc(Br)ccc2/C1=N\O	Active	–	Dose-dependent effect	–	–	–	–
O=C1Nc2ccc(O)cc2/C1=C1/Nc2ccccc2C1=O	–	–	Dose-dependent effect	–	–	–	–
CC(C)(C)c1ccc2c(c1)/C(=C1/Nc3ccccc3/C1=N\O)C(=O)N2	Active	–	Dose-dependent effect	–	–	–	–
O=C1Nc2ccccc2/C1=C1/Nc2ccc(Br)cc2/C1=N\O	Active	–	Dose-dependent effect	–	–	–	–
CC(=O)N1C(=O)/C(=C2\Nc3ccccc3C2=O)c2ccccc21	Active	Non-Toxic	Dose-dependent effect	9.8 µM	Active	Active	Non-Toxic
O=C1Nc2ccc(Br)cc2/C1=C1/Nc2ccc(Br)cc2/C1=N\O	Active	–	Dose-dependent effect	–	–	–	Toxic
Cc1ccc2c(c1)/C(=C1/Nc3ccccc3/C1=N\O)C(=O)N2	Active	–	Dose-dependent effect	–	–	–	–
COc1ccc2c(c1)C(=N\O)/C(=C1/C(=O)Nc3ccccc31)N2	Active	–	Dose-dependent effect	–	–	–	–
COc1ccc2c(c1)C(=O)/C(=C1/C(=O)Nc3ccc(OC)cc31)N2	Active	Non-Toxic	Dose-dependent effect	30 µM	Active	Active	Non-Toxic
COc1cccc2c1NC(=O)/C2=C1\Nc2ccccc2\C1=N/O	Active	–	Dose-dependent effect	–	–	–	–
COc1ccc2c(c1)N/C(=C1\C(=O)Nc3ccccc31)C2=O	–	–	Dose-dependent effect	–	–	–	–
O=C1Nc2cc(Br)ccc2/C1=C1/Nc2ccccc2C1=O	inactive	–	–	–	–	–	–

SMILES	Activity (HT-22 [1])	Activity (HT-22 [2])	Activity (HT-22 [3])	EC50 (HT-22 [3])	Activity (HT-22 [4])	Activity (HT-22 [5])	Activity (HT-22 [6])
CCc1ccc2c(c1)/C(=C1/Nc3ccccc3/C1=N\O)C(=O)N2	Active	–	Dose-dependent effect	–	–	–	–
Cc1ccc2c(c1)/C(=C1/Nc3ccccc3C1=O)C(=O)N2	Active	Non-Toxic	Dose-dependent effect	30.8 µM	Active	Active	Non-Toxic
O=C1Nc2cc(O)ccc2/C1=C1/Nc2ccccc2C1=O	Active	Non-Toxic	Dose-dependent effect	23.7 µM	Active	Active	Non-Toxic
O=C1Nc2ccccc2/C1=C1/Nc2ccccc2/C1=N\O	Active	–	Dose-dependent effect	–	–	–	Toxic
COc1ccc2c(c1)/C(=C1/Nc3ccccc3C1=O)C(=O)N2	–	–	Dose-dependent effect	–	–	–	–
O=C1Nc2ccccc2/C1=C1/Nc2ccc(Br)cc2C1=O	–	–	Dose-dependent effect	–	–	–	–
COc1ccc2c(c1)NC(=O)/C2=C1\Nc2ccccc2\C1=N/O	Active	–	Dose-dependent effect	–	–	–	–
CC(C)c1ccc2c(c1)/C(=C1/Nc3ccccc3C1=O)C(=O)N2	–	–	Dose-dependent effect	–	–	–	–
COc1ccc2c(c1)/C(=C1/Nc3ccc(OC)cc3/C1=N\O)C(=O)N2	–	–	Dose-dependent effect	–	–	–	–
O=C1Nc2ccccc2/C1=C1/Nc2ccccc2C1=O [INDIRUBIN]	–	–	Dose-dependent effect	–	–	–	Toxic
COc1cc2c(cc1OC)/C(=C1/Nc3ccccc3C1=O)C(=O)N2	–	–	Dose-dependent effect	–	–	–	–
O=C1Nc2ccccc2/C1=C1/Nc2cc(Br)ccc2C1=O	–	–	Dose-dependent effect	–	–	–	–
O=C(O)Cc1ccc2c(c1)/C(=C1/Nc3ccccc3C1=O)C(=O)N2	–	–	Dose-dependent effect	–	–	–	–
CN1C(=O)/C(=C2\Nc3ccccc3\C2=N/O)c2ccc(Br)cc21	Active	–	Dose-dependent effect	–	–	–	–
CCc1ccc2c(c1)/C(=C1/Nc3ccccc3C1=O)C(=O)N2	–	–	Dose-dependent effect	–	–	–	–
O=C1Nc2c(Br)cccc2/C1=C1/Nc2ccccc2C1=O	inactive	–	–	–	–	–	–
CCc1ccc2c(c1)C(=O)/C(=C1/C(=O)Nc3ccccc31)N2	Active	Non-Toxic	Dose-dependent effect	24.5 µM	Active	Active	Non-Toxic
CC(C)(C)c1ccc2c(c1)/C(=C1/Nc3ccccc3C1=O)C(=O)N2	–	–	Dose-dependent effect	–	–	–	–
O=C1Nc2ccc(Br)cc2/C1=C1/Nc2ccc(Br)cc2C1=O	Active	Non-Toxic	Dose-dependent effect	21.3 µM	Active	Active	Non-Toxic
COc1ccc2c(c1)C(=O)/C(=C1/C(=O)Nc3ccccc31)N2	–	–	Dose-dependent effect	–	–	–	–
CN1C(=O)/C(=C2\Nc3ccccc3C2=O)c2ccc(Br)cc21	inactive	–	–	–	–	–	–
COc1ccc2c(c1)NC(=O)/C2=C1\Nc2ccccc2C1=O	–	–	Dose-dependent effect	–	–	–	–

— ChEMBL document CHEMBL4177682, “Indirubin derivatives protect against endoplasmic reticulum stress-induced cytotoxicity and down-regulate CHOP levels in HT22 cells” (Bioorg Med Chem Lett, 2017)
